Like-named read-outs stand apart in the source and are kept apart here.
Experiments:
[1] = anticonvulsant activity, standard maximal electroshock test (MES); format: in vivo, mice; conditions: Mus musculus, po, read-out: ED50, MES
Protocol: The anticonvulsant activity of certain compounds of the present invention was determined by a standard maximal electroshock test, that described by L. A. Woodbury and V. D. Davenport, Arch. Int. Pharmacodyn.: 1952, 92, 97.

[2] = LD50 in mice, p.o.; conditions: mouse, in vivo, po, dose for which 50% of the animals survive 10 days after administration
Protocol: (§1) The LD50's (expressed in mg/kg, p.o.) of 3,5-diamino-6-(2,3-dichlorophenyl)-1,2,4-triazine and 3,5-diamino-6-(2,5-dichlorophenyl)-1,2,4,-triazine were determined in mice and rats. The LD50 described is the dose for which 50% of the animals survive 10 days after administration of the compound.

[3] = LD50 in rats, p.o.; conditions: rat, in vivo, po, dose for which 50% of the animals survive 10 days after administration
Protocol: as §1

[4] = system: Plasmodium berghei; conditions: Plasmodium berghei in mice; Rees et al, J. Med. Chem., 1972 15, 859; cited from earlier work
[5] = cited from earlier work; for toxicity: J. Med. Chem., 1972 15, 859
[6] = Rosenberg and Bottiroli, Proc. Soc. Exp. Biol. 1964; cited from earlier work
[7] = mice, p.o., maximal electroshock, Table 3
[8] = mice, p.o., maximal electroshock, Table 4 (naphthyl compounds)

Question: Which ED50 [1, 7] does the source give for `Nc1nnc(-c2ccccc2I)c(N)n1` [2-I NH2, 3,5-diamino-6-(2-iodophenyl)-1,2,4-triazine] here?
Answer: The ED50 was 11.8 mg/kg.

Question: For `Nc1nnc(-c2cc(Cl)cc(Cl)c2Cl)c(N)n1` [2,3,5-Cl3 NH2, 3,5-diamino-6-(2,3,5-trichlorophenyl)-1,2,4-triazine], which ED50 [1, 7] is on record?
Answer: Its ED50 is 0.65 mg/kg.

Question: Which results are given for `Nc1nnc(-c2cccc(Cl)c2Cl)c(N)n1` [2,3-Cl2 NH2, 3,5-diamino-6-(2,3-dichlorophenyl)-1,2,4-triazine]?
Answer: LD50 at 240 h [2]: 250 mg/kg; LD50 at 240 h [3]: > 640 mg/kg; ED50 [1]: 2.4 mg/kg

Question: With `Nc1nnc(-c2ccccc2Br)c(N)n1` [2-Br NH2, 3,5-diamino-6-(2-bromophenyl)-1,2,4-triazine] as the molecule, how does the ED50 [1, 7] read?
Answer: Its ED50 is 8.5 mg/kg.

Question: Which ED50 [1, 8] does the source give for `Nc1nnc(-c2cccc3ccccc23)c(N)n1` [H, 3,5-diamino-6-(1-naphthyl)-1,2,4-triazine] here?
Answer: The ED50 was 2.9 mg/kg.

Question: For `Nc1nnc(-c2cc(Br)ccc2Cl)c(N)n1` [2-Cl, 5-Br NH2, 3,5-diamino-6-(5-bromo-2-chlorophenyl)-1,2,4-triazine], which ED50 [1, 7] is on record?
Answer: Its ED50 is 6 mg/kg.

Question: With `Nc1nnc(-c2cc(Cl)ccc2Cl)c(N)n1` [2,5-Cl2 NH2, 3,5-diamino-6-(2,5-dichlorophenyl)-1,2,4-triazine] as the molecule, how does the LD50 at 240 h [2] read?
Answer: Its LD50 at 240 h is 708 mg/kg.

Question: And the LD50 at 240 h [3]?
Answer: The LD50 at 240 h was over 640 mg/kg.

Question: And the ED50 [1, 7]?
Answer: Its ED50 is 3.3 mg/kg.

Question: For `Nc1nnc(-c2c(F)cccc2Cl)c(N)n1` [2-Cl, 6-F NH2, 3,5-diamino-6-(2-chloro-6-fluorophenyl)-1,2,4-triazine], which ED50 [1, 7] is on record?
Answer: Its ED50 is 12.2 mg/kg.

Question: With `Nc1nnc(-c2ccc(Cl)cc2Cl)c(N)n1` [2,4-dichlorophenyl] as the molecule, how does the antimalarial activity [4] read?
Answer: The antimalarial activity was “only slight antimalarial activity”.

Question: Which toxicity ([5]; Rees et al) does the source give for `Nc1nnc(-c2ccc(Cl)cc2)c(N)n1` [4-chlorophenyl] here?
Answer: The toxicity was “toxic at curative doses”.

Question: What about the therapeutic ratio ([5]; malaria, Rees et al) of the same molecule?
Answer: Its therapeutic ratio is “low therapeutic ratio”.

Question: What about the antimalarial activity [4] of the same molecule?
Answer: Its antimalarial activity is “active against the malaria organism Plasmodium berghei in mice”.

Question: Which ED50 [1, 7] does the source give for `CC(=O)Nc1nc(N)nnc1-c1cccc(Cl)c1Cl` [2,3-Cl2 NHCOCH3, 5-acetamido-3-amino-6-(2,3-dichlorophenyl)-1,2,4-triazine] here?
Answer: Its ED50 is 5 mg/kg.

Question: With `CN(C)C=Nc1nc(N)nnc1-c1cccc(Cl)c1Cl.O=C(O)C(=O)O` [2,3-Cl2 NCHNMe2, 3-amino-6-(2,3-dichlorophenyl)-5-dimethylaminomethyleneamino-1,2,4-triazine oxalate] as the molecule, how does the ED50 [1, 7] read?
Answer: Its ED50 is 5 mg/kg.

Question: Which toxicity ([5]; Rees et al) does the source give for `Nc1nnc(-c2ccc(C(F)(F)F)cc2)c(N)n1` [4-trifluoromethylphenyl] here?
Answer: The toxicity was “less toxic than the chlorophenyl compounds”.

Question: And the antimalarial activity [4]?
Answer: Its antimalarial activity is “still being active against malaria”.

Question: With `Nc1nnc(-c2cc(Cl)cc3ccccc23)c(N)n1` [3-Cl, 3,5-diamino-6-(3-chloro-1-naphthyl)-1,2,4-triazine] as the molecule, how does the ED50 [1, 8] read?
Answer: Its ED50 is 6.5 mg/kg.

Question: For `Nc1nnc(-c2ccc(Cl)c(Cl)c2)c(N)n1` [3,4-dichlorophenyl], which toxicity ([5]; Rees et al) is on record?
Answer: The toxicity was “toxic at curative doses”.

Question: And the therapeutic ratio ([5]; mouse, in vivo)?
Answer: The therapeutic ratio was “low therapeutic ratio”.

Question: What about the antimalarial activity [4] of the same molecule?
Answer: The antimalarial activity was “active against the malaria organism Plasmodium berghei in mice”.

Question: For `Nc1nnc(-c2ccc(Br)cc2Cl)c(N)n1` [2-Cl, 4-Br NH2, 3,5-diamino-6-(4-bromo-2-chlorophenyl)-1,2,4-triazine], which ED50 [1, 7] is on record?
Answer: Its ED50 is 12.8 mg/kg.

Question: Which ED50 [1, 7] does the source give for `Cc1ccccc1-c1nnc(N)nc1N` [2-Me NH2, 3,5-diamino-6-(2-methylphenyl)-1,2,4-triazine] here?
Answer: The ED50 was 15 mg/kg.

Question: For `Nc1nnc(-c2cc(Cl)ccc2Br)c(N)n1` [2-Br, 5-Cl NH2, 3,5-diamino-6-(2-5-chlorophenyl)-1,2,4-triazine], which ED50 [1, 7] is on record?
Answer: The ED50 was 4.6 mg/kg.

Question: With `Cc1ccc2ccccc2c1-c1nnc(N)nc1N` [2-Me, 3,5-diamino-6-(2-methyl-1-naphthyl)-1,2,4-triazine] as the molecule, how does the ED50 [1, 8] read?
Answer: The ED50 was 16.5 mg/kg.

Question: For `CCN(CCO)CCCC(C)Nc1ccnc2cc(Cl)ccc12` (stereo not drawn) [hydroxychloroquine], which anticonvulsant activity profile [6] is on record?
Answer: Its anticonvulsant activity profile is “favourable activity profile”.

Question: With `Nc1nnc(-c2ccccc2C(F)(F)F)c(N)n1` [2-CF3 NH2, 3,5-diamino-6-(2-trifluoromethylphenyl)-1,2,4-triazine] as the molecule, how does the ED50 [1, 7] read?
Answer: The ED50 was 20 mg/kg.
